According to the supplement of paper PMC10307832:

Assays:
Experiment in all cases: relative viability (nuclei count vs DMSO), 5 days (fraction); higher = more cells survive
[1] = compound: Cc1nc(Nc2ncc(C(=O)Nc3c(C)cccc3Cl)s2)cc(N2CCN(CCO)CC2)n1 [Dasatinib] + COc1cccc2cc(-c3nc([C@H]4CC[C@H](C(=O)O)CC4)n4ncnc(N)c34)[nH]c12 [OSI-027] (partner 0.5 µM)
Outline: (§1)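 The day after seeding in 1536-well plates, lung cancer cell lines were treated by pin tool with a single drug, or with a fixed anchor-drug dose together with five library-drug doses (not always all listed) in √10 steps. After 5 days, a combined fix-and-stain solution (final 0.05% Triton X-100, 1% formaldehyde, 1 ug/ml Hoechst) was added. Nuclei counted on 4× images gave relative viability as treated counts over vehicle counts, reported as the median of duplicate plates.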

[2] = compound: C1CC1C(=O)NC2=NNC3=C2C=CC(=C3)C4=CC(=CC=C4)C(=O)NC5CC5 [XMD13-2] + COc1cccc2cc(-c3nc([C@H]4CC[C@H](C(=O)O)CC4)n4ncnc(N)c34)[nH]c12 [OSI-027] (partner 0.5 µM)
Outline: as §1

[3] = compound: Cc1ccc(C(=O)Nc2cccc(C(F)(F)F)c2)cc1Nc1cncc(C(N)=O)c1 [ALW-II-49-7] + Nc1nc2[nH]cc(CCc3ccc(C(=O)N[C@@H](CCC(=O)O)C(=O)O)cc3)c2c(=O)[nH]1 [Pemetrexed] (partner 0.2 µM)
Outline: as §1

[4] = compound: C1CC1C(=O)NC2=NNC3=C2C=CC(=C3)C4=CC(=CC=C4)C(=O)NC5CC5 [XMD13-2] + Nc1ncn([C@H]2C[C@H](O)[C@@H](CO)O2)c(=O)n1 [Decitabine] (partner 2 µM)
Outline: as §1

Row | Cell Line | relative viability ([1]; first compound 0.005 µM) | relative viability ([1]; first compound 0.01581 µM) | relative viability ([1]; first compound 0.05 µM) | relative viability ([1]; first compound 0.1581 µM) | relative viability ([1]; first compound 0.5 µM) | relative viability ([2]; first compound 0.05 µM) | relative viability ([2]; first compound 0.1581 µM) | relative viability ([2]; first compound 0.5 µM) | relative viability ([2]; first compound 1.581 µM) | relative viability ([2]; first compound 5 µM) | relative viability ([3]; first compound 0.08 µM) | relative viability ([3]; first compound 0.253 µM) | relative viability ([3]; first compound 0.8 µM) | relative viability ([3]; first compound 2.53 µM) | relative viability ([3]; first compound 8 µM) | relative viability ([4]; first compound 0.05 µM) | relative viability ([4]; first compound 0.1581 µM) | relative viability ([4]; first compound 0.5 µM) | relative viability ([4]; first compound 5 µM) | relative viability ([4]; first compound 1.581 µM)
1 | PC-3 [JPC-3] | 0.764 | 0.739 | 0.759 | 0.73 | 0.38 | 0.831 | 0.663 | 0.746 | 0.707 | 0.754 | 0.976 | 0.909 | 0.843 | 1.27 | 0.947 | 0.794 | 0.892 | 0.851 | 0.842 | 
2 | HCC-44 | 0.65 | 0.754 | 0.466 | 0.337 | 0.273 | 0.565 | 0.57 | 0.507 | 0.381 | 0.438 | 0.683 | 0.662 | 0.617 | 0.664 | 0.673 | 0.981 | 0.835 | 1.01 | 0.963 | 0.992
3 | NCI-H2405 | 0.581 | 0.418 | 0.353 | 0.245 | 0.161 | 0.632 | 0.543 | 0.587 | 0.676 | 0.598 | 1.14 | 1.12 | 0.898 | 1.06 | 0.791 | 0.796 | 0.731 | 0.73 | 0.673 | 
4 | LXF-289 | 0.812 | 0.733 | 0.567 | 0.323 | 0.125 | 0.874 | 0.761 | 0.829 | 0.697 | 0.867 | 0.822 | 0.869 | 0.958 | 1.05 | 0.959 | 0.38 | 0.377 | 0.402 | 0.379 | 0.399
5 | LOU-NH91 | 0.705 | 0.604 | 0.595 | 0.526 | 0.344 | 0.753 | 0.716 | 0.759 | 0.663 | 0.815 | 0.298 | 0.361 | 0.35 |  | 0.338 | 0.815 | 0.844 | 0.802 | 0.882 | 0.837
6 | A549 |  |  |  |  |  |  |  |  |  |  |  |  |  |  |  | 0.307 | 0.233 | 0.289 | 0.24 | 0.247
7 | H3255 | 0.639 | 0.484 | 0.653 | 0.44 | 0.274 | 0.705 | 0.536 | 0.589 | 0.564 | 0.549 | 0.623 | 0.579 | 0.576 | 0.566 | 0.489 | 0.749 | 0.72 | 0.532 | 0.603 | 
8 | NCI-H1395 | 0.615 | 0.7 | 0.541 | 0.361 | 0.35 | 0.684 | 0.757 | 0.653 | 0.633 | 0.647 | 0.894 | 0.984 | 1.18 |  | 0.621 | 0.845 | 0.738 | 0.753 | 0.706 | 0.661
9 | LC-2-ad | 0.932 | 0.867 | 0.526 | 0.34 | 0.345 | 0.86 | 0.78 | 0.972 | 0.723 | 0.67 | 0.249 | 0.258 | 0.273 | 0.229 | 0.267 | 0.797 | 0.728 | 0.828 | 0.712 | 0.79
10 | NCI-H838 | 0.409 | 0.266 | 0.265 | 0.252 | 0.179 | 0.432 | 0.402 | 0.339 | 0.398 | 0.437 | 0.237 | 0.272 | 0.243 | 0.258 | 0.25 | 0.386 | 0.414 | 0.477 | 0.387 | 0.436
11 | NCI-H1648 | 0.264 | 0.274 | 0.306 | 0.268 | 0.24 | 0.251 | 0.266 | 0.241 | 0.291 | 0.259 | 0.579 | 0.934 | 0.802 | 0.52 | 0.738 | 0.507 |  | 0.515 | 0.579 | 0.475
12 | LCLC-97TM1 | 0.557 | 0.598 | 0.55 | 0.606 | 0.38 | 0.612 | 0.404 | 0.603 | 0.433 | 0.445 | 0.147 | 0.161 | 0.176 | 0.16 | 0.148 | 0.241 | 0.23 | 0.202 | 0.195 | 0.168
13 | HCC-15 | 0.641 | 0.652 | 0.526 | 0.412 | 0.454 | 0.765 | 0.723 | 0.733 | 0.546 | 0.484 | 0.214 | 0.227 | 0.228 | 0.227 | 0.241 | 0.768 | 0.652 | 0.725 | 0.627 | 0.598
14 | CAL-12T | 0.845 | 0.819 | 0.846 | 0.375 | 0.221 | 0.803 | 0.585 | 0.549 | 0.426 | 0.577 | 1.16 | 1.3 | 1.27 | 1.25 | 0.749 |  |  |  |  | 
